*1 amine or outer side, *2 acyl side, *3 side chain or, on linkers, in order; H or OH if unused. Where a SMILES comes first, the peptide text is derived from it. Bridges are numbered along the chain shown (N, C = ends). [ ]: non-standard residue; d: D form. The star is where a group is joined. C20 diacid = O=C(O)CCCCCCCCCCCCCCCCCCC(=O)*; γGlu = O=C(O)[C@H](CCC(=O)[*:2])N[*:1]; Hyp = O=C(O)[C@@H]1C[C@@H](O)CN1; NMeI = CC[C@H](C)[C@H](NC)C(=O)O; Aad = N[C@@H](CCCC(=O)O)C(=O)O; Sar = CNCC(=O)O
What was measured:
[1] = target: T1, human calcitonin receptor (hCTR2) (Homo sapiens, UniProt P30988); assay: hCTR2 cAMP assay (AlphaScreen) in COS7 cells; format: cell-based; conditions: cAMP induction, COS7 cells expressing hCTR2; Table 1; read-out: hCTR2 EC50
T1 construct: expressed in transfected cells
T1 sequence (P30988 25-474): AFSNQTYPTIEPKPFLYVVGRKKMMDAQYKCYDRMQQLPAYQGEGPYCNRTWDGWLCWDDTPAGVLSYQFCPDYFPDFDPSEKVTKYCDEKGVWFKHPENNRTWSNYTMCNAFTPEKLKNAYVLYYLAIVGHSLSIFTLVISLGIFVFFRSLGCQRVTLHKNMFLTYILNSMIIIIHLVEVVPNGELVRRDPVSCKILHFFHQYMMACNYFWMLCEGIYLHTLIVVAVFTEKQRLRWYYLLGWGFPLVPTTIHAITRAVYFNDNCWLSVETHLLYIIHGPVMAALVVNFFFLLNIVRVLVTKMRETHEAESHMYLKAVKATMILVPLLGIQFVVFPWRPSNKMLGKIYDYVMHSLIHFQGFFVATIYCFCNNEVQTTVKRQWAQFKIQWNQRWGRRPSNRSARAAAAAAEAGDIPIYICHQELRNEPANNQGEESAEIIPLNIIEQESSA
From the text: The cell line COS7, originating from African Green Monkey kidney fibroblast cells, was used for establishment of the stable cell lines described below. The COS7 cellular background was used due to it being RAMP naïve, and as such it provides the best available system for testing of the monomeric hCTR and different heterodimeric amylin receptor subtypes functionally generated by introduction of the individual RAMPs.
A cell line expressing the human calcitonin receptor (hCTR2) was generated in the COS7 cellular background as stable clones. In brief, hCTR2 (GI: 4502547) was amplified by PCR using primers encoding terminal restriction sites for subcloning. The 5′-end primers additionally encoded a near Kozak consensus sequence to ensure efficient translation. The fidelity of the DNA encoding the receptor was confirmed by DNA sequencing. The PCR products encoding the receptor were subcloned into a mammalian expression vector containing a neomycin (G418) resistance marker. The mammalian expression vector encoding the receptor was transfected into COS7 cells by a standard liposome transfection method. 48 hours post-transfection, cells were seeded for limited dilution cloning and selected with 1 mg/ml G418 in the culture medium. After 3 weeks, surviving colonies of hCTR2-expressing cells were picked, propagated and tested in the amylin efficacy assay as described in Example 3 below. One hCTR2-expressing clone was chosen for compound profiling.
In vitro activity of test peptides at the hCTR2 and hAMYR3 receptors was assessed by measuring the induction of cAMP following stimulation of the receptor using the AlphaScreen® cAMP Assay kit from Perkin-Elmer.
Briefly, COS7 cells expressing hCTR2 (see Example 2, above) were seeded at 30-40,000 cells per well in 96-well microtiter plates coated with 0.01% poly-L-lysine, and grown for 1 day in culture in 100 μl growth medium [DMEM, 10% FCS, Penicillin (100 IU/ml), Streptomycin (100 μg/ml)]. On the day of analysis, growth medium was removed and the cells were washed once with 200 μl Tyrode buffer [Tyrode's Salts (9.6 g/I), 10 mM HEPES, pH 7.4]. Cells were incubated in 100 μl Tyrode buffer containing increasing concentrations of test peptides, 100 µM IBMX and 0.1% casein for 15 min at 37° C. The reaction was stopped by carefully decanting off the compound/buffer medium and replacing it with lysis/detection buffer (80 μl 0.1% w/v BSA, 5 mM HEPES, 0.3% v/v Tween-20 in deionized water). After incubation at room temperature for 10 min., the cAMP content of the resulting cell lysate was estimated according to the AlphaScreen® cAMP Assay manufacturer's instructions. EC50 values were estimated by computer-aided curve fitting using the 4-parameter logistic (4PL) non-linear model.

[2] = Assessment of physical stability (Thioflavin T fibrillation); format: physicochemical; parameters: key: FND = fibrillation not detected; FD = fibrillation detected; conditions: 1 mg/ml, 40° C., ThT
Protocol: Solutions containing (i) 1 mg/ml of test peptide, 40 μM ThT and 50 mM phosphate (Ph) buffer (pH 7.0), (ii) 1 mg/ml of test peptide, 40 μM ThT and 50 mM histidine (His) buffer (pH 7.0), and (iii) 1 mg/ml of test peptide, 40 μM ThT and 50 mM acetate (Ac) buffer (pH 4.0), were loaded in a 96-well black fluorescence plate (clear bottom) in triplicate. Data were collected at fixed intervals of 10 min, each preceded by 300 s of automixing (agitation), over a period of 96 hours at 40° C. Physical stability, expressed as lag-time of fibril formation (in hours), was defined as the intersection between two linear regressions representing the initial stable phase and the growth phase.

Row | EC50 [1] | Fibrillation pH 4.0 (Ac) ([2]; 50 mM acetate buffer pH 4.0, 96 hours) | Fibrillation pH 7.0 (His) ([2]; 50 mM histidine buffer pH 7.0, 96 hours) | Fibrillation pH 7.0 (Phos.) ([2]; 50 mM phosphate buffer pH 7.0, 96 hours) | Structure (SMILES)
1 | 0.12 nM | FND | FD | FD | CC[C@H](C)[C@@H](C(=O)N[C@@H](CC(C)C)C(=O)N[C@@H](CO)C(=O)N[C@@H](CO)C(=O)N[C@H](C(=O)N[C@@H](CCC(=O)O)C(=O)N[C@H](C(=O)NCC(=O)N[C@@H](CO)C(=O)N[C@@H](CC(N)=O)C(=O)N[C@H](C(=O)N1C[C@H](O)C[C@H]1C(N)=O)[C@@H](C)O)C(C)C)[C@@H](C)O)N(C)C(=O)[C@H](C)NC(=O)CN(C)C(=O)[C@H](Cc1ccccc1)NC(=O)[C@H](CO)NC(=O)[C@H](CO)NC(=O)[C@H](CCCNC(=N)N)NC(=O)[C@@H](NC(=O)[C@H](CC(C)C)NC(=O)[C@H](Cc1ccccc1)NC(=O)[C@H](Cc1c[nH]cn1)NC(=O)[C@H](C)NC(=O)[C@H](CC(C)C)NC(=O)[C@H](CCCNC(=N)N)NC(=O)[C@H](CCC(=O)O)NC(=O)[C@@H](NC(=O)[C@H](C)NC(=O)[C@@H]1CSSC[C@H](NC(=O)[C@H](CCCNC(=N)N)NC(=O)CC[C@H](NC(=O)CCCCCCCCCCCCCCCCCCC(=O)O)C(=O)O)C(=O)NCC(=O)N[C@@H]([C@@H](C)O)C(=O)N[C@@H](C)C(=O)N[C@@H]([C@@H](C)O)C(=O)N1)[C@@H](C)O)[C@@H](C)O [Compound 18, [19CD]-isoGlu-R-C( )-GTAT-C( )-ATERLAHFLTRSSF-Gly(Me)-A-Ile(Me)-LSSTEVGSNT-Hyp-NH2] ({C20 diacid-γGlu}-RCGTATCATERLAHFLTRSSF[Sar]A[NMeI]LSSTEVGSNT[Hyp]-NH2; disulfide 2-7)
2 | 0.58 nM | – | – | – | CC[C@H](C)[C@@H](C(=O)N[C@@H](CC(C)C)C(=O)N[C@@H](CO)C(=O)N[C@@H](CO)C(=O)N[C@H](C(=O)N[C@@H](CCC(=O)O)C(=O)N[C@H](C(=O)NCC(=O)N[C@@H](CO)C(=O)N[C@H](C(=O)N[C@H](C(=O)N1C[C@H](O)C[C@H]1C(N)=O)[C@@H](C)O)[C@@H](C)O)C(C)C)[C@@H](C)O)N(C)C(=O)[C@H](C)NC(=O)CN(C)C(=O)[C@H](Cc1ccccc1)NC(=O)[C@H](CO)NC(=O)[C@H](CO)NC(=O)[C@H](CCCNC(=N)N)NC(=O)[C@H](CCC(N)=O)NC(=O)[C@H](CC(C)C)NC(=O)[C@H](Cc1ccccc1)NC(=O)[C@H](Cc1c[nH]cn1)NC(=O)[C@H](C)NC(=O)[C@H](CC(C)C)NC(=O)[C@H](CCCNC(=N)N)NC(=O)[C@H](CCC(=O)O)NC(=O)[C@@H](NC(=O)[C@H](C)NC(=O)[C@@H]1CSSC[C@H](NC(=O)[C@H](CCCNC(=N)N)NC(=O)CC[C@H](NC(=O)CCCCCCCCCCCCCCCCCCC(=O)O)C(=O)O)C(=O)N2CCC[C@H]2C(=O)N[C@@H]([C@@H](C)O)C(=O)N[C@@H](C)C(=O)N[C@@H]([C@@H](C)O)C(=O)N1)[C@@H](C)O [Compound 74, [19CD]-isoGlu-R-C( )-PTAT-C( )-ATERLAHFLQRSSF-Gly(Me)-A-Ile(Me)-LSSTEVGSTT-Hyp-NH2] ({C20 diacid-γGlu}-RCPTATCATERLAHFLQRSSF[Sar]A[NMeI]LSSTEVGSTT[Hyp]-NH2; disulfide 2-7)
3 | 0.44 nM | – | – | – | CC[C@H](C)[C@@H](C(=O)N[C@@H](CC(C)C)C(=O)N[C@@H](CO)C(=O)N[C@@H](CO)C(=O)N[C@H](C(=O)N[C@@H](CCC(=O)O)C(=O)N[C@H](C(=O)NCC(=O)N[C@@H](CO)C(=O)N[C@@H](CCCC(=O)O)C(=O)N[C@H](C(=O)N1C[C@H](O)C[C@H]1C(N)=O)[C@@H](C)O)C(C)C)[C@@H](C)O)N(C)C(=O)[C@H](C)NC(=O)CN(C)C(=O)[C@H](Cc1ccccc1)NC(=O)[C@H](CO)NC(=O)[C@H](CO)NC(=O)[C@H](CCCNC(=N)N)NC(=O)[C@H](CCC(N)=O)NC(=O)[C@H](CC(C)C)NC(=O)[C@H](Cc1ccccc1)NC(=O)[C@H](Cc1c[nH]cn1)NC(=O)[C@H](C)NC(=O)[C@H](CC(C)C)NC(=O)[C@H](CCCNC(=N)N)NC(=O)[C@H](CCC(=O)O)NC(=O)[C@@H](NC(=O)[C@H](C)NC(=O)[C@@H]1CSSC[C@H](NC(=O)[C@H](CCCNC(=N)N)NC(=O)CC[C@H](NC(=O)CCCCCCCCCCCCCCCCCCC(=O)O)C(=O)O)C(=O)N2CCC[C@H]2C(=O)N[C@@H]([C@@H](C)O)C(=O)N[C@@H](C)C(=O)N[C@@H]([C@@H](C)O)C(=O)N1)[C@@H](C)O [Compound 76, [19CD]-isoGlu-R-C( )-PTAT-C( )-ATERLAHFLQRSSF-Gly(Me)-A-Ile(Me)-LSSTEVGS-Aad-T-Hyp-NH2] ({C20 diacid-γGlu}-RCPTATCATERLAHFLQRSSF[Sar]A[NMeI]LSSTEVGS[Aad]T[Hyp]-NH2; disulfide 2-7)
4 | 0.15 nM | – | – | – | CC[C@H](C)[C@@H](C(=O)N[C@@H](CC(C)C)C(=O)N[C@@H](CO)C(=O)N[C@@H](CO)C(=O)N[C@H](C(=O)N[C@@H](CCC(=O)O)C(=O)N[C@H](C(=O)NCC(=O)N[C@@H](CO)C(=O)N[C@@H](CO)C(=O)N[C@H](C(=O)N1CCC[C@H]1C(N)=O)[C@@H](C)O)C(C)C)[C@@H](C)O)N(C)C(=O)[C@H](C)NC(=O)CN(C)C(=O)[C@H](Cc1ccccc1)NC(=O)[C@H](CO)NC(=O)[C@H](CO)NC(=O)[C@H](CCCNC(=N)N)NC(=O)[C@H](CCC(=O)O)NC(=O)[C@H](CC(C)C)NC(=O)[C@H](Cc1ccccc1)NC(=O)[C@H](Cc1c[nH]cn1)NC(=O)[C@H](C)NC(=O)[C@H](CC(C)C)NC(=O)[C@H](CCCNC(=N)N)NC(=O)[C@H](CCC(N)=O)NC(=O)[C@@H](NC(=O)[C@H](C)NC(=O)[C@@H]1CSSC[C@H](NC(=O)[C@H](CCCNC(=N)N)NC(=O)CC[C@H](NC(=O)CCCCCCCCCCCCCCCCCCC(=O)O)C(=O)O)C(=O)N[C@@H](CC(N)=O)C(=O)N[C@@H]([C@@H](C)O)C(=O)N[C@@H](C)C(=O)N[C@@H]([C@@H](C)O)C(=O)N1)[C@@H](C)O [Compound 84, [19CD]-isoGlu-R-C( )-NTAT-C( )-ATQRLAHFLERSSF-Gly(Me)-A-Ile(Me)-LSSTEVGSSTP-NH2] ({C20 diacid-γGlu}-RCNTATCATQRLAHFLERSSF[Sar]A[NMeI]LSSTEVGSSTP-NH2; disulfide 2-7)

Reference: patent US20210115104A1, “AMYLIN ANALOGUES” (Zealand Pharma A/S, priority 2015, published 2021)
